From patent publication US20260265238A1, “COMPOUNDS AND PHARMACEUTICAL COMPOSITIONS THAT DEGRADE SWI/SNF-RELATED MATRIX-ASSOCIATED ACTIN-DEPENDENT REGULATOR OF CHROMATIN SUBFAMILY A” (Plexium, Inc., priority 2023, published 2026)

Tests used:
[1] = molecular target: T1, SMARCA2-HiBiT HeLa cells (protein which is expressed from the SMARCA2 gene) (Homo sapiens, UniProt P51531); test: SMARCA2 degradation assay (HiBiT-fusion HeLa cell line, 24 h, luminescence); type: cell-based
T1 construct: protein which is expressed from the SMARCA2 and SMARCA4 genes; host or cells: HeLa (SMARCA2-HiBiT engineered line)
T1 sequence (P51531 whole entry, the tested form may be a part): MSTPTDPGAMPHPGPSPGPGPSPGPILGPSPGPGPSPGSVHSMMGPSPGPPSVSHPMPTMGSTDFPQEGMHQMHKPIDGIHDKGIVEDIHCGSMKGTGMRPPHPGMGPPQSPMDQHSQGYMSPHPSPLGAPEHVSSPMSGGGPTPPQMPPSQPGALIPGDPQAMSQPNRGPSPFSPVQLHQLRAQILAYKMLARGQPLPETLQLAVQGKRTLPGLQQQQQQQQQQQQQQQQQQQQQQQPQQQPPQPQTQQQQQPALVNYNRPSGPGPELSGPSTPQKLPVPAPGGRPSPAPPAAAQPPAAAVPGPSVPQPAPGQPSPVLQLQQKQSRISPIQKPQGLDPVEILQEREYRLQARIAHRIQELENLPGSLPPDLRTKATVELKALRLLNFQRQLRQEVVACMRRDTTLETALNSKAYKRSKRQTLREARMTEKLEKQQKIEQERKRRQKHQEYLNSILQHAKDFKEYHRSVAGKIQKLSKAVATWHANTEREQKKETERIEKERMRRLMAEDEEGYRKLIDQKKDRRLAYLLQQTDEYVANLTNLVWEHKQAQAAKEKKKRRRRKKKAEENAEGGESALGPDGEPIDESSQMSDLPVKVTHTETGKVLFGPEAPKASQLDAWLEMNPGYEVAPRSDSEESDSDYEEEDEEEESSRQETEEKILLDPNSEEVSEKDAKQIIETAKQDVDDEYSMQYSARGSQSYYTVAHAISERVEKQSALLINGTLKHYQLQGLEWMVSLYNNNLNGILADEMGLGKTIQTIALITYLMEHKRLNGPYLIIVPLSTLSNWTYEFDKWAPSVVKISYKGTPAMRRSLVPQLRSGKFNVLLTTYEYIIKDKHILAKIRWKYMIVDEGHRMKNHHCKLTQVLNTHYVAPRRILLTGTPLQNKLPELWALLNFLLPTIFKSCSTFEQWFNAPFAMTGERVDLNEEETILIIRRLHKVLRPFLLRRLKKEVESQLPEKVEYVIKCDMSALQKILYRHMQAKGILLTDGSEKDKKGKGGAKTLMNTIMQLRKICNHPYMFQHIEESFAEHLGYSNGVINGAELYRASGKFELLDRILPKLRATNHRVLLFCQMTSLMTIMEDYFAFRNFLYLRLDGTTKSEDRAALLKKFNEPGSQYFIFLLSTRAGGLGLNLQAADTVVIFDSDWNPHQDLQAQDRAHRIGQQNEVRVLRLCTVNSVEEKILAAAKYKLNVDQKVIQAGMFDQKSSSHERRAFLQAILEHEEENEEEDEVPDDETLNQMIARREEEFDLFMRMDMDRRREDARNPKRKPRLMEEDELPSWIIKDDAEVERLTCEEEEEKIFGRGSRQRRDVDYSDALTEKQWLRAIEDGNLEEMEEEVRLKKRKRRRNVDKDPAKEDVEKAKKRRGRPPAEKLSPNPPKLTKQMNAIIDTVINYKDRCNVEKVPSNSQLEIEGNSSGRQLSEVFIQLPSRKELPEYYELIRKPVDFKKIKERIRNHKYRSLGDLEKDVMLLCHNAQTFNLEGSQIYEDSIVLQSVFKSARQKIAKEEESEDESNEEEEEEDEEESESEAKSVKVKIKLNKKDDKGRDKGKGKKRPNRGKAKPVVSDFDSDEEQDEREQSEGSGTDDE
Description: (§1) SMARCA2 and SMARCA4 Degradation Assay
(§2) Degradation of protein which is expressed from the SMARCA2 and SMARCA4 genes was monitored using engineered HiBiT-fusion HeLa cell lines from Promega. In brief, 384-well white opaque plates (Greiner) were seeded with SMARCA2-HiBiT or SMARCA4-HiBiT HeLa cells at 8,000 cells/well and incubated overnight at 37° C. to allow cell attachment. After overnight incubation, test compounds were added in a 10-point dilution series (typically 10 μM to 300 pM) using a TECAN D300e Digital Dispenser, and plates were subsequently incubated for 24 hours at 37° C. 24-hours post-treatment, protein levels were quantified with the addition of HiBiT lytic buffer, LgBiT protein, and HiBiT substrate, according to manufacturer's specifications. Plates were incubated on an orbital plate shaker for 10 minutes at room temperature. Resulting luminescent values were read out using a ClarioStar plate reader and used to construct dose-response curves and calculation of degradation DC50s (GraphPad Prism).
(§3) Activity of the tested compounds is provided in Table 4 below as follows: A=DC50<0.050 μM; B=0.05 μM<DC50<0.50 μM; C=<0.5 μM<DC50<5.0 μM; D=DC50>5.0 μM. For SMARCA2 and SMARCA4 degradation activity @1 μM, +++=>70%; ++=30-70%; +=<30%.

[2] = molecular target: T2, SMARCA4-HiBiT HeLa cells (protein which is expressed from the SMARCA4 gene) (Homo sapiens, UniProt P51532); test: SMARCA4 degradation assay (HiBiT-fusion HeLa cell line, 24 h, luminescence); type: cell-based
T2 construct: protein which is expressed from the SMARCA2 and SMARCA4 genes; host or cells: HeLa (SMARCA4-HiBiT engineered line)
T2 sequence (P51532 whole entry, the tested form may be a part): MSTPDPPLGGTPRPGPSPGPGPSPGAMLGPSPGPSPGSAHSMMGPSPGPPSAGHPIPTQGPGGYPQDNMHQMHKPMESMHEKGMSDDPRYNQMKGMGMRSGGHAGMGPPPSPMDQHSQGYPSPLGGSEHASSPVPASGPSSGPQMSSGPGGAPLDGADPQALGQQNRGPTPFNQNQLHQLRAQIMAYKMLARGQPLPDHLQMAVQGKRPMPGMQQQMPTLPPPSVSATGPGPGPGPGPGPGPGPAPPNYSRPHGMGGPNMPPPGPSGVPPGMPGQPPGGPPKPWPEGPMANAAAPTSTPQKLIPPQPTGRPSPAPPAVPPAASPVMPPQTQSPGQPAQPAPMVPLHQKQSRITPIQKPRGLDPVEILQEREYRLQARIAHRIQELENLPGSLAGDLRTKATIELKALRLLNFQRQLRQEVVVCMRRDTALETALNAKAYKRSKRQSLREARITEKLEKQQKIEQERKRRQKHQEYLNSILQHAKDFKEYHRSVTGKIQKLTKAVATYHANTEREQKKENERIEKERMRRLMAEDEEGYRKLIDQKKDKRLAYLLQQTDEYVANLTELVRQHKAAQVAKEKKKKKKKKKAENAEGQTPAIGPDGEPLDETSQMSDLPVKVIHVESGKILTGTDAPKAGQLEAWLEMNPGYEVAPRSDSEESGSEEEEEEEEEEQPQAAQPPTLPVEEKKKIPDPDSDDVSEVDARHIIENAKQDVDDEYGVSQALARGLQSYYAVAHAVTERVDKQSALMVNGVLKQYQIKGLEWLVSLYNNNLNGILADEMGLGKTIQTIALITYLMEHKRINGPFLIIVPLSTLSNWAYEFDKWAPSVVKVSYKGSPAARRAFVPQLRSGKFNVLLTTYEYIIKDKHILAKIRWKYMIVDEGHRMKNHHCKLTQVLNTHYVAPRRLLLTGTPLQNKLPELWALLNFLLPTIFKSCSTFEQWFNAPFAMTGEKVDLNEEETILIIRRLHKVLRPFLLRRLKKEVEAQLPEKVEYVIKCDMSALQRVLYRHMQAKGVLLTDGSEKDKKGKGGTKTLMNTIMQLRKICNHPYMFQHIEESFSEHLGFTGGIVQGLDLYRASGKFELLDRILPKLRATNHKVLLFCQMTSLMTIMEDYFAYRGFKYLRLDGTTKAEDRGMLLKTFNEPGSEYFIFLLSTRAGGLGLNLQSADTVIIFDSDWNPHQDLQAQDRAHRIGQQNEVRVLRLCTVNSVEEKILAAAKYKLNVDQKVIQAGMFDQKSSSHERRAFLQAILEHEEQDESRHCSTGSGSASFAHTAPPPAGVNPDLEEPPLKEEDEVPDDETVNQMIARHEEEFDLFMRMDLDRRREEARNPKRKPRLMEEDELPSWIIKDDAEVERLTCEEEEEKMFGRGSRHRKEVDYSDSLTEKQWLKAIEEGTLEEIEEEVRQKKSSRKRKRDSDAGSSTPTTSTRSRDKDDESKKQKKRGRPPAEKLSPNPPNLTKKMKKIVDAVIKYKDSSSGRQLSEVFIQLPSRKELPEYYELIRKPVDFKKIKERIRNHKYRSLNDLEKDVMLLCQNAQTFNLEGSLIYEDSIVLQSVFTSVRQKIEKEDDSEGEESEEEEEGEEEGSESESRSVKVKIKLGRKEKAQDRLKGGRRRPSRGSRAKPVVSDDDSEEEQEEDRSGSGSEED
Description: as §1, §2, §3

Structure (SMILES)	DC50 [1]	SMARCA2 % Degradation @ 1 μM ([1]; @ 1 μM)	DC50 [2]	inhibition at 1 µM ([2]; @ 1 μM)	SMARCA2 % Degradation @ 1 μM ([1]; 1 μM)	inhibition at 1 µM ([2]; 1 μM)
Nc1nnc(-c2ccccc2O)cc1N1CCN(c2ccnc(C#CCNC(=O)c3cc4ccccc4o3)n2)CC1 [Compound P-75, N-(3-(4-(4-(3-amino-6-(2-hydroxyphenyl)pyridazin-4-yl)piperazin-1-yl)pyrimidin-2-yl)prop-2-yn-1-yl)benzofuran-2-carboxamide]	50 to 500 nM	++ (++=30-70%)	< 50 nM	30 to 70%	–	–
Nc1nnc(-c2ccccc2O)cc1N1CCCN(c2ccnc(C#Cc3cnc4cnccn34)n2)CC1 [Compound P-135, 2-(6-amino-5-(4-(2-(imidazo[1,2-a]pyrazin-3-ylethynyl)pyrimidin-4-yl)-1,4-diazepan-1-yl)pyridazin-3-yl)phenol]	50 to 500 nM	++ (++=30-70%)	50 to 500 nM	30 to 70%	–	–
C[C@@H]1CCN(c2cc(-c3ccccc3O)nnc2N)CCN1c1ccnc(C#CCn2cncn2)c1C#N [Compound P-405, 4-{(R)-4-[3-amino-6-(0-hydroxyphenyl)-4-pyridaziny1]-7-methyl-1,4-diazepan-1-yl}-2-[3-(1H-1,2,4-triazol-1-yl)-1-propynyl]nicotinonitrile]	500 to 5000 nM	–	> 5000 nM	–	–	–
C[C@@H]1CCN(c2cc(-c3ccccc3O)nnc2N)CCN1c1cc(C#CCn2ccnc2)ncc1Cl [Compound P-408, 0-{5-[(R)-4-{5-chloro-2-[3-(1-imidazolyl)-1-propynyl]-4-pyridyl}-5-methyl-1,4-diazepan-1-yl]-6-amino-3-pyridazinyl} phenol]	50 to 500 nM	–	50 to 500 nM	–	++ (++=30-70%)	30 to 70%
CC(C)[C@@H]1COCCN1CC#Cc1nccc(N2CCN(c3cc(-c4ccccc4O)nnc3N)CC[C@H]2C)n1 [Compound P-262, o-{5-[(R)-4-(2-{3-[(R)-3-isopropyl-4-morpholinyl]-1-propynyl}-4-pyrimidinyl)-5-methyl-1,4-diazepan-1-yl]-6-amino-3-pyridazinyl} phenol]	50 to 500 nM	+++ (+++=>70%)	50 to 500 nM	30 to 70%	–	–
Cc1c(C(=O)NCC#Cc2nccc(N3CCN(c4cc(-c5ccccc5O)nnc4N)CC3)n2)oc2ccccc12 [Compound P-74, N-(3-(4-(4-(3-amino-6-(2-hydroxyphenyl)pyridazin-4-yl)piperazin-1-yl)pyrimidin-2-yl)prop-2-yn-1-yl)-3-methylbenzofuran-2-carboxamide]	50 to 500 nM	++ (++=30-70%)	50 to 500 nM	30 to 70%	–	–
Nc1nnc(-c2ccccc2O)cc1N1CCC2(CCCN(c3ccnc(C#CCNC(=O)c4cc5ncccn5n4)n3)C2)CC1 [Compound P-35, N-(3-(4-(9-(3-amino-6-(2-hydroxyphenyl)pyridazin-4-yl)-2,9-diazaspiro[5.5]undecan-2-yl)pyrimidin-2-yl)prop-2-yn-1-yl)pyrazolo[1,5-a]pyrimidine-2-carboxamide]	50 to 500 nM	++ (++=30-70%)	50 to 500 nM	> 70%	–	–
CN(C)CC#Cc1nc(N2CCCN(c3cc(-c4ccccc4O)nnc3N)CC2)ccc1C#N [Compound P-385, 6-{4-[3-amino-6-(o-hydroxyphenyl)-4-pyridazinyl]-1,4-diazepan-1-y1}-2-[3-(dimethylamino)-1-propynyl]nicotinonitrile]	50 to 500 nM	–	50 to 500 nM	–	+++ (+++=>70%)	> 70%
COCC#Cc1cc(N2CCN(c3cc(-c4ccccc4O)nnc3N)CC[C@H]2C)ccn1 [Compound P-398, 0-(5-{(R)-4-[2-(3-methoxy-1-propynyl)-4-pyridyl]-5-methyl-1,4-diazepan-1-yl}-6-amino-3-pyridazinyl)phenol]	50 to 500 nM	–	500 to 5000 nM	–	++ (++=30-70%)	30 to 70%
NCC#Cc1nccc(N2CCC3(CCCN(c4cc(-c5ccccc5O)nnc4N)C3)CC2)n1 [Compound P-89, 2-(6-amino-5-(9-(2-(3-aminoprop-1-yn-1-yl)pyrimidin-4-yl)-2,9-diazaspiro[5.5]undecan-2-yl)pyridazin-3-yl)phenol]	500 to 5000 nM	+ (+=<30%)	500 to 5000 nM	< 30%	–	–
Nc1nnc(-c2ccccc2O)cc1N1CCCN(c2ccnc(C#CCN3C4CCC3CC(O)C4)n2)CC1 (stereo not drawn) [Compound P-338, 8-[3-(4-{4-[3-amino-6-(o-hydroxyphenyl)-4-pyridazinyl]-1,4-diazepan-1-yl}-2-pyrimidinyl)-2-propynyl]-8-azabicyclo[3.2.1]octan-3-ol]	50 to 500 nM	++ (++=30-70%)	50 to 500 nM	< 30%	–	–
CC1CCN(c2cc(-c3ccccc3O)nnc2N)CCN1c1ccnc(C#CCN)n1 (stereo not drawn) [Compound P-85, 2-(6-amino-5-(4-(2-(3-aminoprop-1-yn-1-yl)pyrimidin-4-yl)-5-methyl-1,4-diazepan-1-yl)pyridazin-3-yl)phenol]	500 to 5000 nM	+ (+=<30%)	500 to 5000 nM	< 30%	–	–
C[C@@H]1CCN(c2cc(-c3ccccc3O)nnc2N)CCN1c1ccnc(C#CCN2CC(F)(F)[C@H]2C)n1 [Compound P-271, 0-{5-[(R)-4-(2-{3-[(R)-3,3-difluoro-2-methyl-1-azetidinyl]-1-propynyl}-4-pyrimidinyl)-5-methyl-1,4-diazepan-1-yl]-6-amino-3-pyridazinyl}phenol]	50 to 500 nM	++ (++=30-70%)	50 to 500 nM	< 30%	–	–
Cc1nn2ccn(CC#Cc3nccc(N4CCN(c5cc(-c6ccccc6O)nnc5N)CC4)n3)c(=O)c2c1C [Compound P-281, 5-[3-(4-{4-[3-amino-6-(o-hydroxyphenyl)-4-pyridazinyl]-1-piperazinyl}-2-pyrimidinyl)-2-propynyl]-2,3-dimethyl-1,5,7a-triaza-4(5H)-indenone]	< 50 nM	++ (++=30-70%)	< 50 nM	30 to 70%	–	–
Nc1nnc(-c2ccccc2O)cc1OC1CC2CN(c3ccnc(C#CCN4CCC4)n3)CC2C1 (stereo not drawn) [Compound P-197, o-[6-amino-5-(3-(2-[3-(1-azetidinyl)-1-propynyl]-4-pyrimidinyl}-3-azabicyclo[3.3.0]oct-7-yloxy)-3-pyridazinyl]phenol]	50 to 500 nM	++ (++=30-70%)	500 to 5000 nM	30 to 70%	–	–
C[C@@H]1CCN(c2cc(-c3ccccc3O)nnc2N)CCN1c1ccnc(C#CCN2CCC3(CCC3)C2)n1 [Compound P-237, o-{5-[(R)-4-(2-{3-(6-aza-6-spiro| 3.4 | octyl)-1-propynyl}-4-pyrimidinyl)-5-methyl-1,4-diazepan-1-yl]-6-amino-3-pyridazinyl} phenol]	< 50 nM	+++ (+++=>70%)	< 50 nM	30 to 70%	–	–
CC1(C)CN(CC#Cc2nccc(N3CCCN(c4cc(-c5ccccc5O)nnc4N)CC3)n2)CCO1 [Compound P-311, 0-[6-amino-5-(4-{2-[3-(2,2-dimethyl-4-morpholinyl)-1-propynyl]-4-pyrimidinyl}-1,4-diazepan-1-yl)-3-pyridazinyl]phenol]	50 to 500 nM	++ (++=30-70%)	500 to 5000 nM	30 to 70%	–	–
CC1CN(c2cc(-c3ccccc3O)nnc2N)CCN1c1ccnc(C#CCNC(=O)c2cc3ncccn3n2)n1 (stereo in doubt) [Compound P-81, (R)-N-(3-(4-(4-(3-amino-6-(2-hydroxyphenyl)pyridazin-4-yl)-2-methylpiperazin-1-yl)pyrimidin-2-yl)prop-2-yn-1-yl)pyrazolo[1,5-a]pyrimidine-2-carboxamide]	50 to 500 nM	++ (++=30-70%)	< 50 nM	30 to 70%	–	–
Nc1nnc(-c2ccccc2O)cc1N1CCCN(c2ccnc(C#CCn3ccn4nccc4c3=O)n2)CC1 [Compound P-109, 5-(3-(4-(4-(3-amino-6-(2-hydroxyphenyl)pyridazin-4-yl)-1,4-diazepan-1-yl)pyrimidin-2-yl)prop-2-yn-1-yl)pyrazolo[1,5-a]pyrazin-4(5H)-one]	< 50 nM	+++ (+++=>70%)	50 to 500 nM	30 to 70%	–	–
CC1CC(C)N1CC#Cc1nccc(N2CCN(c3cc(-c4ccccc4O)nnc3N)CC[C@H]2C)n1 (stereo partly drawn) [Compound P-249, o-{5-[(R)-4-{2-[3-(2,4-dimethyl-1-azetidinyl)-1-propynyl]-4-pyrimidinyl}-5-methyl-1,4-diazepan-1-yl]-6-amino-3-pyridaziny1} phenol]	< 50 nM	++ (++=30-70%)	< 50 nM	< 30%	–	–
